Literature values, collected in patent US9233169B2, “Oligomer-bis-chromonyl compound conjugates” (NEKTAR THERAPEUTICS, priority 2008, dated 2016).

Test system: mast cell degranulation
Conditions: monkey gingiva; Nuki et al. (1975)

## O=C([O-])c1cc(=O)c2c(OCC(O)COc3cccc4oc(C(=O)[O-])cc(=O)c34)cccc2o1.[Na+].[Na+] [Cromonlyn sodium, disodium 5,5′-((2-hydroxytrimethylene)dioxy)bis(4-oxo-4H-1 benzopyran-2-carboxylate)]
  inhibition of mast cell degranulation: inhibit mast cell degranulation
